One series relates to schistosomiasis parasite. The conditions noted are these: cited from earlier work.
Series [1] relates to Leishmania donovani MHOM-ET-67/L82 strain. Nature of the series: Antiprotozoal activity against L. donovani. Type of series: cell-based. The conditions noted are these: read-out: IC50 L. donovani.
Another series can be described thus: Cytotoxicity. The series is classed as cell-based. The conditions noted are these: rat.

The values below come from paper PMC4128413 (Tetrahedron letters, 2014).

A word on the IC50: it is the concentration that gives 50% inhibition.

With `O=C(C1CCC(O)CC1)N1CC(=O)N2CCc3ccccc3C2C1` (stereo not drawn) [Compound 2], the “antischistosomal effectiveness relative to praziquantel (1) (in words)” value with schistosomiasis parasite is on record as “equal to or considerably less effective than the parent drug”.

For the compound `CCCCCCCCCCCCCCCCOP(=O)([O-])OCC[N+](C)(C)C` [Miltefosine], the IC50 in series [1] is 340 nM.

Regarding `COc1cc([C@@H]2c3cc4c(cc3[C@H](O)[C@H]3COC(=O)[C@H]23)OCO4)cc(OC)c1OC` [Podophyllotoxin], the IC50 in “Cytotoxicity” was determined as 7.2 nM.
